Experimental data taken from US7232912B2, “Indazole compounds, pharmaceutical compositions, and methods for mediating or inhibiting cell proliferation” (Agouron Pharmaceuticals, Inc., priority 2000, dated 2007).

What was measured:
Format in all cases: biochemical
CDK4/cyclin D3 = CDK4/cyclin D3 (Homo sapiens, UniProt P11802); assay: Inhibition of CDK4/Cyclin D Retinoblastoma Kinase Activity; details: apparent Ki
Method in brief: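 Human CDK4/cyclin D3 (full-length or cyclin D3 1–264), insect-cell expressed, at 5 or 50 nM with His-tagged Rb 386–928 substrate, 25 μM ATP plus [32P/33P]ATP, pH 7.4, 2% DMSO, 30 °C for 20 min; tight binders used 5 nM enzyme for 60 min. Filter-captured phospho-Rb quantified by phosphorimager. Apparent Ki from competitive or tight-binding inhibition fits.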

CDK2/cyclin A = target: T1, CDK2/cyclin A (Homo sapiens, UniProt P24941); assay: Inhibition of CDK2/Cyclin A Retinoblastoma Kinase Activity; details: apparent Ki
T1 construct: made in house; host or cells: CDK2: insect cells (baculovirus); cyclin A: E. coli
Method in brief: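 Baculovirus-expressed CDK2 complexed with proteolyzed cyclin A, at 150 nM or 5 nM, phosphorylating an Rb fragment with 25 µM [32/33P]ATP in HEPES pH 7.4, 2% DMSO. Reactions run 20 min at 30°C, EDTA-stopped, filter-captured; apparent Ki from competitive or tight-binding competitive fits.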

FGFR1 tyrosine kinase = target: T2, FGFR1 tyrosine kinase (Homo sapiens, UniProt P11362, C488A/C584S/L457V); assay: Inhibition of phosphorylated FGF receptor tyrosine kinase activity; details: for inhibition at 1 µM: read-out: FGF % Inhib. at 1 μM
T2 construct: the cytosolic domain of FGFR1 tyrosine kinase (amino acids 456–766); made in house; host or cells: Sf9 insect cells (baculovirus)
Method in brief: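 Phosphorylated Sf9-expressed kinases, FGFR1 (aa 456–766) at 100 nM and LCK (aa 223–509) at 50 nM, with 100 μM ATP and poly(Glu,Tyr) 4:1 at 5.1 (FGFR) or 25 mM (LCK), pH 7.5, 37° C. Pyruvate kinase/LDH-coupled NADH loss read at 340 nm under initial-rate conditions; % inhibition versus 2% DMSO control.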

T2 sequence (P11362 456-766 L457V/C488A/C584S): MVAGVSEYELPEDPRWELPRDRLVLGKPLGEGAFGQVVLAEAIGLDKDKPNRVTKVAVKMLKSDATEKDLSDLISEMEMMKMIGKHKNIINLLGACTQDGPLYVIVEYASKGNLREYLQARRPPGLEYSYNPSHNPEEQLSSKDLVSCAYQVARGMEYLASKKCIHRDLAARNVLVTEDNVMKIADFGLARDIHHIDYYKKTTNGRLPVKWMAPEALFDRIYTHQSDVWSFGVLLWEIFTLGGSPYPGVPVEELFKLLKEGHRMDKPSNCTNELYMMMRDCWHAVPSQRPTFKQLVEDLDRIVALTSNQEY
Chain of CDK4/cyclin D3 (P11802 2-303 limits assumed): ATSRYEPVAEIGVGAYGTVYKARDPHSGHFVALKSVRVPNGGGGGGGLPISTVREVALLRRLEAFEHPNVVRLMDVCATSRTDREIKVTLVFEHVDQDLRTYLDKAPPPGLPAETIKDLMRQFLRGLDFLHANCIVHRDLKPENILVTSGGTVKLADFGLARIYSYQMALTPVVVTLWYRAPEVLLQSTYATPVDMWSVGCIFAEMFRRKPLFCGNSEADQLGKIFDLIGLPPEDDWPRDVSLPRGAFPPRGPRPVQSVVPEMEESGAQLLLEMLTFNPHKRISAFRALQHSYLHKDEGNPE
Chain of CDK4/cyclin D3 (P30281 1-264 limits assumed, further chain): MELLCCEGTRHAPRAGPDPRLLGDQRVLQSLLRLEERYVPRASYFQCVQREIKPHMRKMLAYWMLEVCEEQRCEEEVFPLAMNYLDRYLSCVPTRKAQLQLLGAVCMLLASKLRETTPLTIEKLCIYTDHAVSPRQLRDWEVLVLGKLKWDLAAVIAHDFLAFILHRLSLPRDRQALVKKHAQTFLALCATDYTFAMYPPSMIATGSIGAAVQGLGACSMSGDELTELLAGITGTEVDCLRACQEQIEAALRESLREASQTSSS

## CCNCc1cccc2[nH]c(-c3n[nH]c4ccc(-c5cncc6ccccc56)cc34)nc12 [Example 37, Ethyl-[2-(5-isoquinolin-4-yl-1H-indazol-3-yl)-1H-benzoimidazol-4-ylmethyl]-amine]
CDK4/cyclin D3
  Ki: 0.76 nM
CDK2/cyclin A
  Ki: 0.22 nM
FGFR1 tyrosine kinase
  inhibition at 1 µM: 34.4%

## Cc1c(-c2cccc(CO)c2)cncc1-c1ccc2[nH]nc(-c3nc4ccccc4[nH]3)c2c1 [Example 69, (3-{5-[3-(1H-Benzoimidazol-2-yl)-1H-indazol-5-yl]-4-methyl-pyridin-3-yl}-phenyl)-methanol]
CDK4/cyclin D3
  Ki: 15 nM
CDK2/cyclin A
  Ki: 4.1 nM
FGFR1 tyrosine kinase
  inhibition at 1 µM: 25.6%

## Cc1c(O)cccc1-c1ccc2[nH]nc(/C=C/c3ccccc3)c2c1 [15′, 2-Methyl-3-[3-((E)-styryl)-1H-indazol-5-yl]-phenol]
CDK4/cyclin D3
  Ki: 18 nM
CDK2/cyclin A
  Ki: 62 nM
FGFR1 tyrosine kinase
  inhibition at 1 µM: 87%

## O=C(Nc1cccc2c(-c3ccc4[nH]nc(-c5nc6ccccc6[nH]5)c4c3)cncc12)c1cccnc1 [Example 55, N-{4-[3-(1H-Benzoimidazol-2-yl)-1H-indazol-5-yl]-isoquinolin-8-yl}-nicotinamide]
CDK4/cyclin D3
  Ki: 41 nM
CDK2/cyclin A
  Ki: 1.1 nM
FGFR1 tyrosine kinase
  inhibition at 1 µM: 83.6%

## Cc1c(-c2cccnc2)cncc1-c1ccc2[nH]nc(-c3nc4ccccc4[nH]3)c2c1 [Example 58]
CDK4/cyclin D3
  Ki: 6.7 nM
CDK2/cyclin A
  Ki: 1 nM
FGFR1 tyrosine kinase
  Ki: 3000 nM
  inhibition at 1 µM: 20.3%

## CCc1c(-c2ccncc2)cncc1-c1ccc2[nH]nc(-c3nc4ccccc4[nH]3)c2c1 [Example 61, 5-[3-(1H-Benzoimidazol-2yl)-1H-indazol-5-yl]-4ethyl-[3,4′]bipyridinyl]
CDK4/cyclin D3
  Ki: 17 nM
CDK2/cyclin A
  Ki: 1.2 nM
FGFR1 tyrosine kinase
  Ki: 480 nM
  inhibition at 1 µM: 60.7%

## C(=C\c1n[nH]c2ccc(-c3cncc4ccccc34)cc12)/c1ccccc1 [Example 16]
CDK4/cyclin D3
  Ki: 35 nM
CDK2/cyclin A
  Ki: 15 nM
FGFR1 tyrosine kinase
  Ki: 1000 nM

## Cc1c(O)cccc1-c1ccc2[nH]nc(-c3nc4ccccc4[nH]3)c2c1 [10′, 3-[3-(1H-Benzoimidazol-2-yl)-1H-indazol-5-yl]-2-methyl-phenol]
CDK4/cyclin D3
  Ki: 74 nM
CDK2/cyclin A
  Ki: 33 nM
FGFR1 tyrosine kinase
  inhibition at 1 µM: 61%

## CS(=O)(=O)Nc1ccc2nc(-c3n[nH]c4ccc(-c5cncc6ccccc56)cc34)[nH]c2c1 [Example 70, N-[2-(5-Isoquinolin-4-yl-1H-indazol-3-yl)-3H-benzoimidazol-5-yl]-methanesulfonamide]
CDK4/cyclin D3
  Ki: 1.8 nM
CDK2/cyclin A
  Ki: 0.23 nM
FGFR1 tyrosine kinase
  inhibition at 1 µM: 63%

## CN(C)Cc1cccc2[nH]c(-c3n[nH]c4ccc(-c5cncc6ccccc56)cc34)nc12 [Example 31, [2-(5-Isoquinolin-4-yl-1H-indazol-3-yl)-1H-benzoimidazol-4-ylmethyl]-dimethyl-amine]
CDK4/cyclin D3
  Ki: 0.37 nM
CDK2/cyclin A
  Ki: 0.21 nM
FGFR1 tyrosine kinase
  inhibition at 1 µM: 55.5%

## c1ccc2[nH]c(-c3n[nH]c4ccc(-c5cccc6[nH]ccc56)cc34)nc2c1 [Example 48, 3-(1H-Benzoimidazol-2-yl)-5-(1H-indol-4-yl)-1H-indazole]
CDK4/cyclin D3
  Ki: 21 nM
CDK2/cyclin A
  Ki: 55 nM
FGFR1 tyrosine kinase
  inhibition at 1 µM: 68.5%

## Cc1c(CN(C)C)cncc1-c1ccc2[nH]nc(-c3nc4ccccc4[nH]3)c2c1 [Example 73, {5-[3-(1H-Benzoimidazol-2-yl)-1H-indazol-5-yl]-4-methyl-pyridin-3-ylmethyl}-dimethyl-amine]
CDK4/cyclin D3
  Ki: 6.9 nM
CDK2/cyclin A
  Ki: 2.7 nM
FGFR1 tyrosine kinase
  inhibition at 1 µM: 42.9%

## c1ccc2[nH]c(-c3n[nH]c4ccc(-c5cncc6c5CCCN6)cc34)nc2c1 [Example 54]
CDK4/cyclin D3
  Ki: 26 nM
CDK2/cyclin A
  Ki: 0.27 nM
FGFR1 tyrosine kinase
  inhibition at 1 µM: 81.5%

## CC(C)NCc1cccc2[nH]c(-c3n[nH]c4ccc(-c5cncc6ccccc56)cc34)nc12 [Example 38, Isopropyl-[2-(5-isoquinolin-4-yl-1H-indazol-3-yl)-1H-benzoimidazol-4-ylmethyl]-amine]
CDK4/cyclin D3
  Ki: 0.798 nM
CDK2/cyclin A
  Ki: 1 nM
FGFR1 tyrosine kinase
  inhibition at 1 µM: 42.4%

## CCN(CC)Cc1cccc2[nH]c(-c3n[nH]c4ccc(-c5cncc6ccccc56)cc34)nc12 [Example 36, Diethyl-[2-(5-isoquinolin-4-yl-1H-indazol-3-yl)-1H-benzoimidazol-4-ylmethyl]-amine]
CDK4/cyclin D3
  Ki: 2.3 nM
CDK2/cyclin A
  Ki: 1 nM
FGFR1 tyrosine kinase
  inhibition at 1 µM: 55.8%

## Fc1ccccc1-c1ccc2[nH]nc(-c3nc4ccccc4[nH]3)c2c1 [Example 6, 3-(1H-Benzoimidazol-2-yl)-5-(2-fluorophenyl)-1H-Indazole]
CDK4/cyclin D3
  Ki: 200 nM
CDK2/cyclin A
  Ki: 160 nM
FGFR1 tyrosine kinase
  inhibition at 1 µM: 53%

## Clc1ccncc1-c1ccc2[nH]nc(-c3nc4ccccc4[nH]3)c2c1 [Example 52, 3-(1H-Benzoimidazol-2-yl)-5-(4-chloro-pyridin-3-yl)-1H-indazole]
CDK4/cyclin D3
  Ki: 3.5 nM
CDK2/cyclin A
  Ki: 2.6 nM
FGFR1 tyrosine kinase
  inhibition at 1 µM: 55%

## CCNCc1cncc(-c2ccc3[nH]nc(-c4nc5ccccc5[nH]4)c3c2)c1C [Example 74, {5-[3-(1H-Benzoimidazol-2-yl)-1H-indazol-5-yl]-4-methyl-pyridin-3-ylmethyl}-ethyl-amine]
CDK4/cyclin D3
  Ki: 0.52 nM
CDK2/cyclin A
  Ki: 1.6 nM
FGFR1 tyrosine kinase
  inhibition at 1 µM: 82.6%

## OCc1cccc2[nH]c(-c3n[nH]c4ccc(-c5cncc6ccccc56)cc34)nc12 [Example 29, [2-(5-Isoquinolin-4-yl-1H-indazol-3-yl)-1H-benzoimidazol-4-yl]-methanol]
CDK4/cyclin D3
  Ki: 7.7 nM
CDK2/cyclin A
  Ki: 0.47 nM
FGFR1 tyrosine kinase
  Ki: 2200 nM

## Cc1c(CO)cncc1-c1ccc2[nH]nc(-c3nc4ccccc4[nH]3)c2c1 [Example 72, {5-[3-(1H-Benzoimidazol-2-yl)-1H-indazol-5-yl]-4-methyl-pyridin-3-yl}-methanol]
CDK4/cyclin D3
  Ki: 12 nM
CDK2/cyclin A
  Ki: 7.6 nM
FGFR1 tyrosine kinase
  inhibition at 1 µM: 48.6%

## Cc1c(-c2ccncc2)cncc1-c1ccc2[nH]nc(-c3nc4ccccc4[nH]3)c2c1 [Example 53, 5-[3-(1H-Benzoimidazol-2-yl)-1H-indazol-5-yl]-4-methyl-[3,4′]bipyridinyl]
CDK4/cyclin D3
  Ki: 2.6 nM
CDK2/cyclin A
  Ki: 0.29 nM
FGFR1 tyrosine kinase
  inhibition at 1 µM: 32%

## CCc1cncc(-c2ccc3[nH]nc(/C=C/c4ccccc4)c3c2)c1Cl [Example 46, 5-(4-Chloro-5-ethyl-pyridin-3-yl)-3-(E)-styryl-1H-indazole]
CDK4/cyclin D3
  Ki: 30 nM
CDK2/cyclin A
  Ki: 28 nM
FGFR1 tyrosine kinase
  inhibition at 1 µM: 50.5%

## Cc1c(/C=C/CO)cncc1-c1ccc2[nH]nc(-c3nc4ccccc4[nH]3)c2c1 [Example 59, (E)-3-{5-[3-(1H-Benzoimidazol-2-yl)-1H-indazol-5-yl]-4-methyl-pyridin-3-yl}-prop-2-en-1-ol]
CDK4/cyclin D3
  Ki: 1.6 nM
CDK2/cyclin A
  Ki: 0.58 nM
FGFR1 tyrosine kinase
  inhibition at 1 µM: 47.6%

## Cc1c(-c2ccncc2)cncc1-c1ccc2[nH]nc(-c3nc4ccc(NS(C)(=O)=O)cc4[nH]3)c2c1 [Example 71, N-{2-[5-(4-methyl-[3,4′]bipyridinyl-5-yl)-1H-indazol-3-yl)-3H-benzoimidazol-5-yl]-methanesulfonamide]
CDK4/cyclin D3
  Ki: 0.85 nM
CDK2/cyclin A
  Ki: 1 nM
FGFR1 tyrosine kinase
  inhibition at 1 µM: 28.8%

## Cc1c(CCCO)cncc1-c1ccc2[nH]nc(-c3nc4ccccc4[nH]3)c2c1 [Example 60, (E)-3-{5-[3-(1H-Benzoimidazol-2-yl)-1H-indazol-5-yl]-4-methyl-pyridin-3-yl}-propan-1-ol]
CDK4/cyclin D3
  Ki: 1.6 nM
CDK2/cyclin A
  Ki: 0.6 nM
FGFR1 tyrosine kinase
  inhibition at 1 µM: 40.8%
